# According to ChEMBL document CHEMBL1135560, “Parallel synthesis and anti-malarial activity of a sulfonamide library” (Bioorg Med Chem Lett, 2002):
# Tested on: Plasmodium falciparum
# Assay: Growth inhibition of Plasmodium falciparum at 10 nM
# Assay type: functional
row,SMILES,inhibition at 0.01 µM
1,Cc1ccc(S(=O)(=O)NCCCN2CCN(CCCNc3ccnc4cc(Cl)ccc34)CC2)cc1,54%
2,O=S(=O)(Cc1ccccc1)NCCCN1CCN(CCCNc2ccnc3cc(Cl)ccc23)CC1,4%
3,Cc1ccc([N+](=O)[O-])cc1S(=O)(=O)NCCCN1CCN(CCCNc2ccnc3cc(Cl)ccc23)CC1,56%
4,O=S(=O)(NCCCN1CCN(CCCNc2ccnc3cc(Cl)ccc23)CC1)c1ccc(Cl)cc1,26%
5,O=[N+]([O-])c1ccccc1S(=O)(=O)NCCCN1CCN(CCCNc2ccnc3cc(Cl)ccc23)CC1,0%
6,CC(=O)c1cccc(S(=O)(=O)NCCCN2CCN(CCCNc3ccnc4cc(Cl)ccc34)CC2)c1,22%
7,O=[N+]([O-])c1cccc(S(=O)(=O)NCCCN2CCN(CCCNc3ccnc4cc(Cl)ccc34)CC2)c1,48%
8,O=S(=O)(NCCCN1CCN(CCCNc2ccnc3cc(Cl)ccc23)CC1)c1cc(C(F)(F)F)ccc1Cl,60%
9,CCS(=O)(=O)NCCCN1CCN(CCCNc2ccnc3cc(Cl)ccc23)CC1,1%
10,COc1ccc(Br)cc1S(=O)(=O)NCCCN1CCN(CCCNc2ccnc3cc(Cl)ccc23)CC1,64%
11,O=S(=O)(NCCCN1CCN(CCCNc2ccnc3cc(Cl)ccc23)CC1)c1ccc(F)cc1,20%
12,O=S(=O)(/C=C/c1ccccc1)NCCCN1CCN(CCCNc2ccnc3cc(Cl)ccc23)CC1,0%
13,O=S(=O)(NCCCN1CCN(CCCNc2ccnc3cc(Cl)ccc23)CC1)c1ccccc1F,11%
14,CC(C)S(=O)(=O)NCCCN1CCN(CCCNc2ccnc3cc(Cl)ccc23)CC1,25%

# Tested on: MRC5
# Assay: Cytotoxicity tests were performed on a human diploid embryonic lung cell line (MRC5) using the colorimetric MTT assay
# Assay type: functional, cell-based
row,SMILES,IC50
1,CCN(CC)CCCC(C)Nc1ccnc2cc(Cl)ccc12 (stereo unspecified) [CHLOROQUINE],50 µM

# Tested on: Plasmodium falciparum
# Assay: Antimalarial activity against chloroquine-resistant Plasmodium falciparum FcB1
# Assay type: functional, organism-based
row,SMILES,IC50
1,Clc1ccc2c(NCCCN3CCN(CCCNc4ccnc5cc(Cl)ccc45)CC3)ccnc2c1,0.112 µM
